Experimental data from patent US8106092B2, “Treatment of solid cancers” (priority 2004, dated 2012).

Assays:
Type in all cases: in vivo, C57BL/6 mice
[1] = tested on: B16 tumors; experiment: PEP005-mediated cure of primaries plus DC therapy, growth of secondary tumors, B16 model; conditions: DC p=0.009
Description: FIGS. 13A to C are graphical representations showing synergistic effects between PEP005-mediated cure of primaries and DC therapy on the growth of secondary tumors and on CD8^+ T-cell induction. (A) On d−3 C57BL/6 mice where inoculated with 2×10^6 B16-OVA cells on the right flank (primary tumor) and 2×10^4 B16-OVA cells on the left flank (secondary tumor). On d0 and d1 the primary B16-OVA tumors, which has reach 30.4 mm^2+SD6 were cured with i.t. injections of 25 μg of PEP005 formulated in PEG400. On d4 and d11 mice received DC therapy using DC2.4 cells pulsed with SVYDFFVWL [SEQ ID NO:1], KVPRNQDWL [SEQ ID NO:4] and SIINFEKL [SEQ ID NO:2] peptides, and ovalbumin (n=12, PEP005+DC). […] A third group was inoculated with secondary tumors only and received the DC therapy (n=14, DC), and the control group was given only secondary tumors and received no treatment (n=18, Control). Animals were culled when the secondary tumors reached 100 mm^2. (B) The experiment in (A) was repeated in the B16 model (n=6 per group). On d−2 C57BL/6 mice were inoculated with 10^6 B16 cells on the right flank (primary tumor) and 5×10^4 cells on the left flank (secondary tumors). […] Animal groups were established and treated as in (A) except that on d12 mice were sacrificed and splenocytes analyzed in an ex vivo ELISPOT assay for responses to SVYDFFVWL [SEQ ID NO:1], KVPRNQDWL [SEQ ID NO:4] and SIINFEKL [SEQ ID NO:2] […]

[2] = tested on: SIINFEKL [SEQ ID NO:2]-specific CD8^+ T-cells; experiment: SIINFEKL-specific CD8+ T-cells by IFNγ ELISPOT after i.t. PEP005 treatment of Lewis lung-OVA
Description: FIGS. 4A to D are graphical representations showing protection against secondary tumors following cure of primary tumors with PEP005. (A) C57BL/6 mice received 5×10^5 Lewis lung-OVA s.c. on the back on day less 7 (d−7). When these primary tumors had reached an average 13.6 mm^2±1.8 SE (range 10-25 mm^2) on d0 they were treated once with 16 μg of PEP005 delivered i.t. In eight mice these primary tumors were cured, and these mice received 5×10^5 Lewis lung-OVA s.c. on d4 on the opposite flank from the primary tumors. The emergence of these secondary tumors was monitored over time (PEP005 cured). In a parallel group of animals (n=5) PEP005 treatment regressed the primary tumors, but after 11-13 days the primary tumors re-emerged. These animals also received secondary tumors as above and their emergence was again monitored over time (PEP005 regressed). Two control groups were included. One group (n=6) received no primary tumors, but was treated s.c. with PEP005 and received secondary tumors on the opposite flank (white triangles, PEP005 s.c.). […] Secondary B16-OVA (10^5) were injected i.v. on d6 and animals were sacrificed on d27 and lung metastases counted.
Mouse splenocytes were analyzed by ex vivo IFNγ ELISPOT essentially as described previously (Le et al, Vaccine 19:4669-4675, 2001), but using MultiScreen-IP plates (Millipore) and 25 IU/ml of recombinant human IL-2 (Cetus).

[3] = tested on: B16 tumors; experiment: B16-specific antibody responses by ELISA after PEP005 treatment of B16 tumors; conditions: as early as d11; exceeding untreated animals with large tumor burdens, p=0.045 at 1/100 dilution
Description: FIG. 15 is a graphical representation showing antibody responses following PEP005 treatment of B16 tumors. B16 tumors growing on C57BL/6 mice were cured with PEP005 treatment after they had reached 30-60 mm^3, (one tumor per mouse) and B16-specific antibody titers were measured by standard ELISA on blood taken d11 post treatment initiation (n=6) (▪) or d135 post treatment initiation (n=5) (▴). Antibody titers for untreated animals whose tumors had reached 121.5±SD 20.1 (n=4) by d11 are also shown (X). Naïve mice (n=5) received no tumors (i).
Anti-tumor antibodies are known to have anti-cancer activity. […] B16 cells (10^6) were injected s.c. (1 tumor/mouse) into the flanks of female, 6-10 week-old mice and when tumors had reached ≈30-60 mm^3 they were treated with PEP005 as above. On d11 and 135 serum was taken and analyzed by ELISA for antibodies specific for B16. A group of B16 bearing animals which were not treated with PEP005 and a naïve group were also included. B16 cells were sonicated in carbonate buffer 9pH=9) and absorbed onto Immuno Maxisorp 96 well plates (Nunc) overnight and dried. The plates were blocked with 5% v/v FBS, 0.01% v/v Tween in PBS for 1 hour at 37° C. […]

In the case of C/C=C(/C)C(=O)O[C@H]1C(C)=C[C@]23C(=O)[C@@H](C=C(CO)[C@@H](O)[C@]12O)[C@H]1[C@@H](C[C@H]3C)C1(C)C [PEP005, ingenol-3-angelate], the “growth of secondaries vs no treatment controls” value [1] is reported as “did not provide a significant delay of tumor growth”, the “number of SIINFEKL-specific CD8+ T-cells vs untreated control animals” value ([2]; PEP005 injected s.c. rather than into a tumor) is reported as “failed to increase” and the “SIINFEKL-specific CD8+ T-cells vs control animals” value ([2]; primary tumors cured by PEP005, p=0.008 unpaired t-Test) is reported as “significantly more”. The “B16-specific antibody responses (ELISA)” value [3] was “clearly detectable antibody responses”.
